# Data reported in ChEMBL document CHEMBL5465560, “Selectivity Literature for EUbOPEN Chemogenomic Library” (2024).
# Assays:
# [1] = biological target: T1, Mitogen-activated protein kinase kinase kinase 2 (Homo sapiens) (UniProt Q9Y2U5); assay: Selectivity interaction (LanthaScreen Eu Kinase Binding Assay) EUB0001632a MAP3K2; conditions: at 10 µM
# T1 sequence (whole entry): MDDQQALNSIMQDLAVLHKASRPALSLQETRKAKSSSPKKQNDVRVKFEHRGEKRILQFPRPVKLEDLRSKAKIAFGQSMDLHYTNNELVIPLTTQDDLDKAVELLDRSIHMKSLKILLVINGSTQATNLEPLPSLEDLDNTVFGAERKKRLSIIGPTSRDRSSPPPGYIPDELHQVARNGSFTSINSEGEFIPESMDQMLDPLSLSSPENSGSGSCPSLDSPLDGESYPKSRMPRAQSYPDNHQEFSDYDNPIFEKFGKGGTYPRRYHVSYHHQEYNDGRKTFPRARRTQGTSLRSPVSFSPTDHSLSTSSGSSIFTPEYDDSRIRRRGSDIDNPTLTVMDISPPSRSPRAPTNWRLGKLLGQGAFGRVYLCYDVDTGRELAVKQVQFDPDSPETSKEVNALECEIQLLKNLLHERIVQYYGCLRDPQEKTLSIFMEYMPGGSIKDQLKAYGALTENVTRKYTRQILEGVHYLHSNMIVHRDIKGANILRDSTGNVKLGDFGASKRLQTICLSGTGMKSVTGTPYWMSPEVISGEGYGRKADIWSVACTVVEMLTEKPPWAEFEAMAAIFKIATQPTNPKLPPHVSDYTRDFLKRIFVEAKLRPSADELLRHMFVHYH
# [2] = biological target: Bromodomain adjacent to zinc finger domain protein 1A (Homo sapiens) (UniProt Q9NRL2); assay: Selectivity interaction (Bromodomain panel (DSF asssay)) EUB0000270b BAZ1A
# [3] = biological target: Bromodomain-containing protein 2 (Homo sapiens) (UniProt P25440); assay: Selectivity interaction (Bromodomain panel (DSF asssay)) EUB0000270b BRD2
# [4] = biological target: Cyclin-dependent kinase 16 (Homo sapiens) (UniProt Q00536); assay: Selectivity interaction (KinomeScan (DiscoverX)) EUB0001619a CDK16; conditions: at 1 µM
# [5] = biological target: Serine/threonine-protein kinase 25 (Homo sapiens) (UniProt O00506); assay: Selectivity interaction (KinomeScan (DiscoverX)) EUB0000618a STK25; conditions: at 10 µM
# [6] = biological target: T2, Mitogen-activated protein kinase kinase kinase 19 (Homo sapiens) (UniProt Q56UN5); assay: Selectivity interaction (KinomeScan (DiscoverX)) EUB0000618a MAP3K19; conditions: at 10 µM
# T2 sequence (whole entry): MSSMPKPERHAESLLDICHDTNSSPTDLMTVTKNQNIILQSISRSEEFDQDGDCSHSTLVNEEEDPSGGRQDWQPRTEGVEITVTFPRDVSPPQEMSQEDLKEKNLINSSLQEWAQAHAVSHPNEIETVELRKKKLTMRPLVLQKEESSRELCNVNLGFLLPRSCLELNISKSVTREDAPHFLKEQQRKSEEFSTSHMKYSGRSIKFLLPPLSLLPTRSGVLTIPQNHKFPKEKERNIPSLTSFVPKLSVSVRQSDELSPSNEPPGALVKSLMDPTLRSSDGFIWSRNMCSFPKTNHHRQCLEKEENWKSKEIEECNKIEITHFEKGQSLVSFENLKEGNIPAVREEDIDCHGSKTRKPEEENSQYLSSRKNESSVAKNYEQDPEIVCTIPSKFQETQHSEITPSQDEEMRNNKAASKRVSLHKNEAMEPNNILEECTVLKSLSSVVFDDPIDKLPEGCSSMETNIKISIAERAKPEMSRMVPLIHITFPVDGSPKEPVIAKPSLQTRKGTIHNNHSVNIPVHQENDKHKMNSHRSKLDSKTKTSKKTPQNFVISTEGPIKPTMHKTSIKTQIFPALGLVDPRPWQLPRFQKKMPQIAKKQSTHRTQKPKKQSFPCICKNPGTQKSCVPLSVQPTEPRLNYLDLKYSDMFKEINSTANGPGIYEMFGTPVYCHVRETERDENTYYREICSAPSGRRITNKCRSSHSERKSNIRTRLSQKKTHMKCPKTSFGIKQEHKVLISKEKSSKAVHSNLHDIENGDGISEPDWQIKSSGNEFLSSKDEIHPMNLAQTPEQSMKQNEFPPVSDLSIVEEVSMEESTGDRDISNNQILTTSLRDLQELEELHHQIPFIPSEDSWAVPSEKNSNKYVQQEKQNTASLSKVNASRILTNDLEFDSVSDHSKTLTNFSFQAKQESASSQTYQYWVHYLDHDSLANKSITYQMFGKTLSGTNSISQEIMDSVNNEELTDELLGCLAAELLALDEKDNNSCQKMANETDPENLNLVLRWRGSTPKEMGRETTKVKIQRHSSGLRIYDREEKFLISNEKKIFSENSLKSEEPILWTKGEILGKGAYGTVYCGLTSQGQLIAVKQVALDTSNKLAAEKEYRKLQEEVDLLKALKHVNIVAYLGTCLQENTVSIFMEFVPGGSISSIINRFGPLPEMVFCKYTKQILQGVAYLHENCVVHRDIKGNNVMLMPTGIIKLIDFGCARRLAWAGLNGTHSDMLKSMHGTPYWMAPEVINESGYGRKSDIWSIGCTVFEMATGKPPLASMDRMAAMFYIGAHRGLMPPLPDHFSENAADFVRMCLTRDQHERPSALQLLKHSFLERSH
# [7] = biological target: T3, Serine/threonine-protein kinase Sgk3 (Homo sapiens) (UniProt Q96BR1); assay: Selectivity interaction (ActivX KiNativ screen (kinase selectivity in THP-1 cell lysates)) EUB0000639a SGK3; format: subcellular; conditions: lysate, at 0.01 µM
# T3 sequence (whole entry): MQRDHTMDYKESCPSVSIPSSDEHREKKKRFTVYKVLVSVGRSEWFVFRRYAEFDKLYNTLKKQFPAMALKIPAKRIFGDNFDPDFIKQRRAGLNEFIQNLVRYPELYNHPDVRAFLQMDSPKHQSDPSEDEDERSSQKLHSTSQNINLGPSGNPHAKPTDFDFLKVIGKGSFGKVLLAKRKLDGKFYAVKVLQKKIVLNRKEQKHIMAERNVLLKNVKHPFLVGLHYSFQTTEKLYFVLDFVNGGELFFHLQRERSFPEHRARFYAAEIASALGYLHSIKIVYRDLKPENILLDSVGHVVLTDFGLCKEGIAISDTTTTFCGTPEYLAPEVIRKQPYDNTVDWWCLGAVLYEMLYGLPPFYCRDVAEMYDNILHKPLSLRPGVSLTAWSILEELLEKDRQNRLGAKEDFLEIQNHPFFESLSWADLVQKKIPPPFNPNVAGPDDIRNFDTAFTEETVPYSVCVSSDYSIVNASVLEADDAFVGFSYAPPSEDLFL
# Sequence of Serine/threonine-protein kinase 25 (Homo sapiens) (O00506 whole entry, looked up): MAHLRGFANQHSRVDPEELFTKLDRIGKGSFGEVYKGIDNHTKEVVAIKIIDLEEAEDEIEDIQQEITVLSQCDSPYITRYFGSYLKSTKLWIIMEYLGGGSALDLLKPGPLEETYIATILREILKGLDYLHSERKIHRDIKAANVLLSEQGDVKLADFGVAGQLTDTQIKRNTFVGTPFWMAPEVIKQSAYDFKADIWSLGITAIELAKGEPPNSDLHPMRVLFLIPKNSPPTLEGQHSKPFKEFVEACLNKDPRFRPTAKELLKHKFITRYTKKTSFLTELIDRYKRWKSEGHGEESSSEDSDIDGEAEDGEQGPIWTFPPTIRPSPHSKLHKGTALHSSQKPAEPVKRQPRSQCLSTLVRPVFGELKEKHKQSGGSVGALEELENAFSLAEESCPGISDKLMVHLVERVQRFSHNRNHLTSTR
# Sequence of Bromodomain adjacent to zinc finger domain protein 1A (Homo sapiens) (Q9NRL2 whole entry, the tested form may be a part): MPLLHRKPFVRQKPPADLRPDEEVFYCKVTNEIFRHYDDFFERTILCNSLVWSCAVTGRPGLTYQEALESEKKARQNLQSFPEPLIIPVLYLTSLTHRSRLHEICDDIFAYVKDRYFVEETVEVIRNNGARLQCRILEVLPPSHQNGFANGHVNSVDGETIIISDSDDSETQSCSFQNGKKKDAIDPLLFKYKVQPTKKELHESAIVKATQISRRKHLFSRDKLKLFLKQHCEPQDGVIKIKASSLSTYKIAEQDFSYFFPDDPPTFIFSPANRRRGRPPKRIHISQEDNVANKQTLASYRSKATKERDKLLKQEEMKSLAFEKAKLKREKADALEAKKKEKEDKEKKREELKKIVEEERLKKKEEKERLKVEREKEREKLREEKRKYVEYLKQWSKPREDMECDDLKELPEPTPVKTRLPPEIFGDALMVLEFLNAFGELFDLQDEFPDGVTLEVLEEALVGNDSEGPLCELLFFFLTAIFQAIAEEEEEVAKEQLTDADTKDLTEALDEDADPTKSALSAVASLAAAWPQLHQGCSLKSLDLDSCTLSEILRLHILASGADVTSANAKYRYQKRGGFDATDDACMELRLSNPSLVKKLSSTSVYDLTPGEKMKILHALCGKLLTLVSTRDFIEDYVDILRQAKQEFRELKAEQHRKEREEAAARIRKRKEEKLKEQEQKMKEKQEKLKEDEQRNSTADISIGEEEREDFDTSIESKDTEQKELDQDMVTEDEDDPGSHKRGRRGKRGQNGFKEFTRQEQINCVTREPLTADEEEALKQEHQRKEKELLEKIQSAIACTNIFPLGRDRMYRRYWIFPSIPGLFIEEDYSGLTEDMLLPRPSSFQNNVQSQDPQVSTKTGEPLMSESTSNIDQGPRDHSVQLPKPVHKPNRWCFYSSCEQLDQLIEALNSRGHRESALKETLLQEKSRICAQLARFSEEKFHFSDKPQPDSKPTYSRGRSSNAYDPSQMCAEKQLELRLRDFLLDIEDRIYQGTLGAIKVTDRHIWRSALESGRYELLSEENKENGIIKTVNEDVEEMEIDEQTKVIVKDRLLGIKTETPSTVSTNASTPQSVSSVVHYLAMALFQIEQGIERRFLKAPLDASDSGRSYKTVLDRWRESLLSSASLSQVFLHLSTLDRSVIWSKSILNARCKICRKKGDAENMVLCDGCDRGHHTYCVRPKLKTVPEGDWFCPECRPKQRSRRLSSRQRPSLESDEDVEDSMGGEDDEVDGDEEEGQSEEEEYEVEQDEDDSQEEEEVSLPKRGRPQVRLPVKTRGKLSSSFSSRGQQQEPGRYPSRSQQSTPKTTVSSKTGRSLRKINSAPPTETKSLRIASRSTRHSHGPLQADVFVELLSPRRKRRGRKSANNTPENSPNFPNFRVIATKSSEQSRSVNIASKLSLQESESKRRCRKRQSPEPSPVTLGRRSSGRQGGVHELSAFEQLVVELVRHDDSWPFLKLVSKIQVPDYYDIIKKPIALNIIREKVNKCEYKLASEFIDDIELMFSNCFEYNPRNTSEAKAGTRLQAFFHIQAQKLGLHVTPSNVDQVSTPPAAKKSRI
# Sequence of Bromodomain-containing protein 2 (Homo sapiens) (P25440 whole entry, looked up): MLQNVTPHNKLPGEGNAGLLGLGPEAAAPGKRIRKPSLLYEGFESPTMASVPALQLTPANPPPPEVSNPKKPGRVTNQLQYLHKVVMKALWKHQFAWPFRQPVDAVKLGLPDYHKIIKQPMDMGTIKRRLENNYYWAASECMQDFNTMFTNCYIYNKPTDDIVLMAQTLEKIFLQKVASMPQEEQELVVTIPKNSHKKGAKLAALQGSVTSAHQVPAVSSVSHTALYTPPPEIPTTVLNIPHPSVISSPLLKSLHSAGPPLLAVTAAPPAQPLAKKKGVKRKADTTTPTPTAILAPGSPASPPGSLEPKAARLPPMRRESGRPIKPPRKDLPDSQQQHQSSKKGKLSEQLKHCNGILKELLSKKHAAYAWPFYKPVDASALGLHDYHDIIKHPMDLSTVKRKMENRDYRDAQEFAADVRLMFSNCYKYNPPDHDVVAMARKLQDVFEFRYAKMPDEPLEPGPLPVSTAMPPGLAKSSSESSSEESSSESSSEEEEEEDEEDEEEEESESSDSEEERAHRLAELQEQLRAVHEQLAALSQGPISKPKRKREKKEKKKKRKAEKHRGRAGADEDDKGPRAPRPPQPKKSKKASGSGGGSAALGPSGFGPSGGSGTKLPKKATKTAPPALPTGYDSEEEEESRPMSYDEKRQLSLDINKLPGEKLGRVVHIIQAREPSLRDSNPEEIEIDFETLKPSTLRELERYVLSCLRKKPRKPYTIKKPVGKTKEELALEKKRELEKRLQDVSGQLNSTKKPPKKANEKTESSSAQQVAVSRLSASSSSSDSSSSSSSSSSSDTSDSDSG
# Sequence of Cyclin-dependent kinase 16 (Homo sapiens) (Q00536 whole entry): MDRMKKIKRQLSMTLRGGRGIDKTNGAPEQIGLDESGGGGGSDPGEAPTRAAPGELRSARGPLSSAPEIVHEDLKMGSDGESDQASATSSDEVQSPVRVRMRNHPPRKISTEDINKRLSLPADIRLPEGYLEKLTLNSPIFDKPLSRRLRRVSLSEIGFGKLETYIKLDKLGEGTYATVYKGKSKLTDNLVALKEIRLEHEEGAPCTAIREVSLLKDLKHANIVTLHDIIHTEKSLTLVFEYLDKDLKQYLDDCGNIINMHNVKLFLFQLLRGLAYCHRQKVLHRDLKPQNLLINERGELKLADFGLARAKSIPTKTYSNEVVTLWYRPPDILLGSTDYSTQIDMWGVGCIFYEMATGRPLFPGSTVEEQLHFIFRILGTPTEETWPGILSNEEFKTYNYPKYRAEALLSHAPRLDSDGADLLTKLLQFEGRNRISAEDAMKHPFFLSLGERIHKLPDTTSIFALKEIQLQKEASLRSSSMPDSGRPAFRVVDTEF
structure (smiles),measurement,setting,value
Cn1cc(-n2cnc3c(NCc4nc5cc(Cl)c(Cl)cc5[nH]4)nc(N4CCOCC4)nc32)cn1,% of inhibition,[1],-3.79%
Cc1cc(CN)cc(C)c1-c1ncn(C)c1-c1cncn1C,dTM,[2],-1.36 K
same,dTM,[3],-1.94 K
N#Cc1cccc(-c2c[nH]c3ncnc(N4CCOCC4)c23)c1,% of control,[4],90%
O[C@H]1CC[C@H](Nc2ncc3nc(Nc4c(F)cc(F)cc4F)n([C@H]4CCOC4)c3n2)CC1,% of control,[5],64%
same,% of control,[6],47%
CC[C@@H]1[C@H](F)C(=O)N[C@@H]1COc1nccc2cc(C(N)=O)c(OC)cc12 [ZIMLOVISERTIB],% of inhibition,[7],-1%
